The values below come from BindingDB's records for doi:10.7270/Q2HD7T4S (Sanford-Burnham Center For Chemical Genomics, 2008).

Some results are limits rather than exact numbers.

The experiment deals with E3 ubiquitin-protein ligase XIAP (Homo sapiens, UniProt P98170). Briefly: XIAP antagonists, biochemical, IAP family, fluorescence polarization (AID 1018).
Chain of E3 ubiquitin-protein ligase XIAP (P98170 whole entry): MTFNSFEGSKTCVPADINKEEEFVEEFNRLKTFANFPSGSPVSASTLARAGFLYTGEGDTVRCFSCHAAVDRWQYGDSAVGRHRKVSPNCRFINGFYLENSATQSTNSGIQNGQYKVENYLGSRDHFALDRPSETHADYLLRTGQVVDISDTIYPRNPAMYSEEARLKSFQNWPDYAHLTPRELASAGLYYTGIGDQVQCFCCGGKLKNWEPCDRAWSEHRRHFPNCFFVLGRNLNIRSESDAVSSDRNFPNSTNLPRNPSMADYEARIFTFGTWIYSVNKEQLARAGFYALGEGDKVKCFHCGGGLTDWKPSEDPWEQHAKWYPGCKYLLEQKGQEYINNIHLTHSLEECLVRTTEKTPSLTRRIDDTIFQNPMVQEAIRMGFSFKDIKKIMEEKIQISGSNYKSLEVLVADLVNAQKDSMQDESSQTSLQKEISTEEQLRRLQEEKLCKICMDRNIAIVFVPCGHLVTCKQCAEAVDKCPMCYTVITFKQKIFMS
For `COc1cc(CN=Nc2nc(Nc3ccc(C)cc3)nc(-n3nc(C)cc3C)n2)cc(OC)c1OC`, the half-maximal inhibitory concentration (IC50) (as a rule, the point on the concentration scale where inhibition reaches its midpoint) is over 100 µM.

Regarding `COc1cc(CN=Nc2cc(C)nc(NS(=O)(=O)c3ccc(C)cc3)n2)ccc1O`, the IC50 was over 100 µM.

Take `Cc1cc(=O)[nH]c(N=NC(CC(C)C)CC(C)C)n1`: the IC50 is over 100 µM.

Compound `O=C(O)c1cccc(-n2c(O)c3c(c2O)CC(Cl)=CC3)c1` [3-[5-chloranyl-1,3-bis(oxidanylidene)-3a,4,7,7a-tetrahydroisoindol-2-yl]benzoic acid] came in with an IC50 of over 100 µM.

Turning to `COc1ccc(C(=O)C2C(=O)C(=O)N(CC3CCCO3)C2c2cccc(OC)c2)cc1` (stereo not given) [(4Z)-4-[hydroxy-(4-methoxyphenyl)methylene]-5-(3-methoxyphenyl)-1-(tetrahydrofurfuryl)pyrrolidine-2,3-quinone], the IC50 is over 100 µM.

For the compound `O=C(CC=Nc1ccc(Nc2ccccc2)cc1)c1cccs1` [(E)-3-(4-anilinoanilino)-1-thiophen-2-yl-2-propen-1-one], the 50% inhibitory concentration (IC50) is over 100 µM.

Compound `COc1cccc(C(=O)CC=Nc2cc(C)ccc2O)c1` [MLS000088060] displayed an IC50 of over 100 µM.

Regarding `COc1ccc(CN=Nc2nc(N3CCCC3)nc(N3CCCC3)n2)cc1` [MLS000704198], the IC50 was over 100 µM.

The compound `CCOc1ccccc1NC(=O)C1C(C)=NC(=S)NC1c1cccs1` (stereo not given) [N-(2-ethoxyphenyl)-6-methyl-2-sulfanylidene-4-thiophen-2-yl-3,4-dihydro-1H-pyrimidine-5-carboxamide] came in with an IC50 of over 100 µM.

`Cc1cccc(N(CC(N)=O)c2sc(=O)n(-c3ccccc3)c2O)c1` [SMR000009552] displayed an IC50 of over 100 µM.
